{"source": "ChEMBL document CHEMBL3045397", "about": "“Synthesis and anticonvulsant activity of some new series of pyrrole derivatives” (Med Chem Res, 2012)", "key": {"Rattus norvegicus [1]": {"test_system": "Rattus norvegicus", "assay": "Anticonvulsant activity in SwissRattus norvegicus albino (rat) assessed as protection against pentamethylene tetrazole-induced seizures at 5 mg/kg, ip administered for 15 min prior to pentamethylene tetrazole induction relative to placebo", "assay_type": "functional, Swiss albino"}, "Rattus norvegicus [2]": {"test_system": "Rattus norvegicus", "assay": "Toxicity in SwissRattus norvegicus albino (rat) up to 10 mg/kg, ip measured for 24 hr", "assay_type": "organism-based, Swiss albino", "parameters": "dose 10 mg/kg, route intraperitoneal", "details": "in vivo"}, "Rattus norvegicus [3]": {"test_system": "Rattus norvegicus", "assay": "Anticonvulsant activity in SwissRattus norvegicus albino (rat) assessed as protection against pentamethylene tetrazole-induced seizures at 10 mg/kg, ip administered for 15 min prior to pentamethylene tetrazole induction relative to placebo", "assay_type": "functional, Swiss albino"}}, "note": "Calls of active or inactive are those of the source. The calls are words filed in the database; no cut-off is given here.", "data": [{"compound": "Cc1c(C(=O)NNC(N)=S)[nH]c(/C=C/c2ccc(O)cc2)c1C(=O)NNC(N)=S", "values": [{"measurement": "Activity", "setting": "Rattus norvegicus [1]; route intraperitoneal", "value": 0, "unit": "%"}, {"measurement": "Activity", "setting": "Rattus norvegicus [2]", "value": "Non-toxic"}, {"measurement": "Activity", "setting": "Rattus norvegicus [3]; route intraperitoneal", "value": 0, "unit": "%"}]}, {"compound": "CCOC(=O)c1[nH]c(/C=C/c2ccc(Cl)cc2)c(C(=O)OCC)c1C", "values": [{"measurement": "Activity", "setting": "Rattus norvegicus [1]; Swiss albino", "value": "inactive"}, {"measurement": "Activity", "setting": "Rattus norvegicus [3]; Swiss albino", "value": "inactive"}]}, {"compound": "CCOC(=O)c1[nH]c(/C=C/c2ccc(N(C)C)cc2)c(C(=O)OCC)c1C", "values": [{"measurement": "Activity", "setting": "Rattus norvegicus [1]; Swiss albino", "value": "inactive"}, {"measurement": "Activity", "setting": "Rattus norvegicus [3]; Swiss albino", "value": "inactive"}]}, {"compound": "CCOC(=O)c1[nH]c(/C=C/c2ccc(OC)cc2)c(C(=O)OCC)c1C", "values": [{"measurement": "Activity", "setting": "Rattus norvegicus [1]; Swiss albino", "value": "inactive"}, {"measurement": "Activity", "setting": "Rattus norvegicus [3]; Swiss albino", "value": "inactive"}]}, {"compound": "Cc1c(C(=O)NNC(N)=S)[nH]c(/C=C/c2ccc([N+](=O)[O-])cc2)c1C(=O)NNC(N)=S", "values": [{"measurement": "Activity", "setting": "Rattus norvegicus [1]; route intraperitoneal", "value": 0, "unit": "%"}, {"measurement": "Activity", "setting": "Rattus norvegicus [2]", "value": "Non-toxic"}, {"measurement": "Activity", "setting": "Rattus norvegicus [3]; route intraperitoneal", "value": 0, "unit": "%"}]}, {"compound": "Cc1c(C(=O)NNC(N)=S)[nH]c(/C=C/c2ccc(N(C)C)cc2)c1C(=O)NNC(N)=S", "values": [{"measurement": "Activity", "setting": "Rattus norvegicus [1]; route intraperitoneal", "value": 21, "unit": "%"}, {"measurement": "Activity", "setting": "Rattus norvegicus [2]", "value": "Non-toxic"}, {"measurement": "Activity", "setting": "Rattus norvegicus [3]; route intraperitoneal", "value": 46, "unit": "%"}]}, {"compound": "Cc1c(C(=O)NNC(N)=S)[nH]c(/C=C/c2ccc(Cl)cc2)c1C(=O)NNC(N)=S", "values": [{"measurement": "Activity", "setting": "Rattus norvegicus [1]; route intraperitoneal", "value": 19, "unit": "%"}, {"measurement": "Activity", "setting": "Rattus norvegicus [2]", "value": "Non-toxic"}, {"measurement": "Activity", "setting": "Rattus norvegicus [3]; route intraperitoneal", "value": 48, "unit": "%"}]}, {"compound": "O=C1NC(=O)C(c2ccccc2)(c2ccccc2)N1", "note": "[PHENYTOIN]", "values": [{"measurement": "Activity", "setting": "Rattus norvegicus [2]", "value": "Non-toxic"}, {"measurement": "Activity", "setting": "Rattus norvegicus [3]; route intraperitoneal", "value": 98, "unit": "%"}]}, {"compound": "Cc1c(C(=O)NNC(N)=S)[nH]c(/C=C/c2ccccc2)c1C(=O)NNC(N)=S", "values": [{"measurement": "Activity", "setting": "Rattus norvegicus [1]; route intraperitoneal", "value": 33, "unit": "%"}, {"measurement": "Activity", "setting": "Rattus norvegicus [2]", "value": "Non-toxic"}, {"measurement": "Activity", "setting": "Rattus norvegicus [3]; route intraperitoneal", "value": 66, "unit": "%"}]}, {"compound": "CCOC(=O)c1[nH]c(/C=C/c2ccc([N+](=O)[O-])cc2)c(C(=O)OCC)c1C", "values": [{"measurement": "Activity", "setting": "Rattus norvegicus [1]; Swiss albino", "value": "inactive"}, {"measurement": "Activity", "setting": "Rattus norvegicus [3]; Swiss albino", "value": "inactive"}]}, {"compound": "COc1ccc(/C=C/c2[nH]c(C(=O)NNC(N)=S)c(C)c2C(=O)NNC(N)=S)cc1", "values": [{"measurement": "Activity", "setting": "Rattus norvegicus [1]; route intraperitoneal", "value": 0, "unit": "%"}, {"measurement": "Activity", "setting": "Rattus norvegicus [2]", "value": "Non-toxic"}, {"measurement": "Activity", "setting": "Rattus norvegicus [3]; route intraperitoneal", "value": 0, "unit": "%"}]}, {"compound": "CCOC(=O)c1[nH]c(/C=C/c2ccccc2)c(C(=O)OCC)c1C", "values": [{"measurement": "Activity", "setting": "Rattus norvegicus [1]; Swiss albino", "value": "inactive"}, {"measurement": "Activity", "setting": "Rattus norvegicus [3]; Swiss albino", "value": "inactive"}]}, {"compound": "CCOC(=O)c1[nH]c(/C=C/c2ccc(O)cc2)c(C(=O)OCC)c1C", "values": [{"measurement": "Activity", "setting": "Rattus norvegicus [1]; Swiss albino", "value": "inactive"}, {"measurement": "Activity", "setting": "Rattus norvegicus [3]; Swiss albino", "value": "inactive"}]}]}
